83 compounds from PubChem BioAssay AID1645865 (Buhrlage Lab, Dana-Farber Cancer Institute and Novartis …, 2021) can be followed below.

The structures appear in SMILES notation. Active and inactive are the calls of the source.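 Rule for the calls: active = maximal inhibition of the USP30 enzyme reaching 30% or more across the dose series; inactive = the rest.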

This assay deals with Ubiquitin carboxyl-terminal hydrolase 30 (Homo sapiens) (UniProt Q70CQ3). Briefly: ubiquitin-specific protease 30 DUB inhibitors, concentration-effect, biochemical, validation of primary actives (AID 1645865). Particulars: purified USP30, Ub-rhodamine cleavage, fluorescence, 2 h.
Chain of Ubiquitin carboxyl-terminal hydrolase 30 (Homo sapiens) (Q70CQ3 whole entry, looked up): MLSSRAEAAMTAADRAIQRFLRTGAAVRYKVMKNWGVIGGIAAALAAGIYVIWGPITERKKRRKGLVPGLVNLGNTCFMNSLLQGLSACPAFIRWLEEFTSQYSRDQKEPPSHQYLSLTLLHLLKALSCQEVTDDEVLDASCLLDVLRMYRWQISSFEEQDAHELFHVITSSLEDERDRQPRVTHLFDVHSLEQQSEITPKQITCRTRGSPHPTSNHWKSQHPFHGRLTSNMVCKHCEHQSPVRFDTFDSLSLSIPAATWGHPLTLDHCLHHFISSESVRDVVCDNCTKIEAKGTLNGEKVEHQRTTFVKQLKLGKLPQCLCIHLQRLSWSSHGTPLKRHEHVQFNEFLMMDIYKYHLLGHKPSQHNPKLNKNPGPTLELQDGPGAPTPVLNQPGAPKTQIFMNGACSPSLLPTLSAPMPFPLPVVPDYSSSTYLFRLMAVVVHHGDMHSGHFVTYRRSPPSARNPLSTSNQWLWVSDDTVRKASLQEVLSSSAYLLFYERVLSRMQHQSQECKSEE

In general, IC50 refers to the concentration needed to halve the response being measured. In the case of `O=c1[nH]c2ccc(S(=O)(=O)Nc3ccc(O)c4ccccc34)cc2[nH]1`, the IC50 is > 50 µM (inactive). To `O=C(Cn1c(-c2ccccc2)ncc(C(=O)NC2CC2)c1=O)Nc1ccccc1` belongs 14.4 µM; to `CCOC(=O)c1nc(Nc2ccc(OC)c(Cl)c2)c2ccccc2n1`, 26.6 µM; to `O=C(NCc1ccc(CN2CCCC2)cc1)c1cc2ccccc2[nH]c1=O`, > 50 µM (inactive). To `COc1ccc(-c2nc3n(n2)C(CC(=O)Nc2cccc4ccccc24)C(=O)N3)cc1` (stereo not drawn) belongs 2.87 µM; to `CC(C)=CCCC1(C)OC2=C(C(=O)c3cc(O)cc(O)c3C2=O)[C@H]2C=C(C)CC[C@H]21` (stereo partly drawn), > 50 µM (inactive). `Cc1cc(Cl)c2c(c1)[C@]1(C(=O)N2)N2CCC[C@H]2[C@@H](C(=O)c2cc3ccccc3o2)[C@]12C(=O)Nc1ccccc12`: the IC50 was > 50 µM (inactive). Consider `CC1=C(C)C(c2c(-c3ccc(C)cc3)[nH]c3ccccc23)N(C(C)(C)C)C1=O` (stereo not drawn), for which the IC50 was 1.85 µM. Turning to `Cc1cnc2nc3c(cc2c1)CN(CCc1ccc(Cl)cc1)CC3`, the IC50 was > 50 µM (inactive). In the case of `Cc1ccc(-n2c(-c3ccccc3)cn3c4c(=O)[nH]c(=O)n(C)c4nc23)cc1C`, the IC50 is 0.286 µM. Take `NS(=O)(=O)c1cc(C(=O)OCC(=O)NC2CCCc3ccccc32)ccc1Cl` (stereo not drawn): the IC50 was > 50 µM (inactive). Under `Fc1ccccc1Cc1nc(-c2ccc3nncn3c2)no1` stands > 50 µM (inactive); under `O=C(CSc1nnc(Cn2cnc3ccccc32)o1)Nc1ccc([N+](=O)[O-])cc1`, 19.3 µM. On to `N#Cc1ccc(-c2ccc(OCC(=O)Nc3ccc4c(c3)OCO4)cc2)cc1`, for which the IC50 is 3.89 µM. Under `Cn1nc(-c2ccccc2)c(COC(=O)c2ccc([N+](=O)[O-])cc2)c1Cl` stands 23.4 µM; under `CC1CCN(C(=O)c2cn(-c3cc(N4CCC(C)CC4)ncn3)cn2)CC1`, > 50 µM (inactive); under `Cc1cccc(NC(=O)Cn2c(-c3cnccn3)nc(C)c(C)c2=O)c1C`, > 50 µM (inactive). As to `CCn1c(CNc2ccc(Cl)cc2)nnc1SCC(=O)Nc1ccccc1`, the IC50 is > 50 µM (inactive). Under `CCOc1ccc(NC(=O)COc2cccc(-n3cnnn3)c2)cc1` stands > 50 µM (inactive); under `CN(C(=O)CSc1nnc(-c2cc3ccccc3n2C)o1)c1ccccc1`, > 50 µM (inactive); under `CC(Sc1n[nH]c2nc3ccccc3n12)C(=O)Nc1ccc2c(c1)OCCO2` (stereo not drawn), > 50 µM (inactive). Regarding `COc1cccc(NC(=O)Nc2ccc(NC(C)=O)cc2)c1`, the IC50 was 17.9 µM. Consider `CC(=O)c1ccc(Cc2ncc(C(F)(F)F)cc2Cl)s1`, for which the IC50 is > 50 µM (inactive). In the case of `COc1ccc(C(=O)Nc2ccc(S(=O)(=O)N3CCCCC3)cc2)cc1`, the IC50 was > 50 µM (inactive).

Turning to `Cc1c(C)n(-c2ccccc2)c2ncn(CC(=O)N(C)Cc3ccccc3)c(=O)c12`, the IC50 is > 50 µM (inactive). To `O=C(Nc1ccc(-c2cn3ccccc3n2)cc1)C1C=C2C=C(Br)C=CC2OC1=O` (stereo not drawn) belongs 0.337 µM. To `COc1ccccc1NC(=O)CSC1=NC2(CCCCC2)Nc2ccccc21` belongs > 50 µM (inactive); to `COc1ccc(C(C)=O)cc1CC(=O)Nc1nc2ccccc2[nH]1`, > 50 µM (inactive); to `Cc1ccc(Cn2c(=O)c3ccccc3n3c(CCC(=O)N4CCN(c5ccccn5)CC4)nnc23)cc1`, 3.41 µM. Under `COc1ccc(CNC(=O)CN2C(=O)C(C)=C(c3ccc(C)cc3)S2(=O)=O)cc1` stands > 50 µM (inactive); under `Cc1ccc(NC(=O)Cn2cc(S(=O)(=O)N3CCCC3)ccc2=O)cc1`, 20.3 µM; under `N#Cc1ccccc1Cn1c(=O)n(CCCCC(=O)NCCc2ccccc2)c(=O)c2ccccc21`, 14.4 µM. For the compound `Cc1nc(-c2cccc(NC(=O)c3ccccc3Cl)c2)no1`, the IC50 was > 50 µM (inactive). With `CCC1=C(c2ccc(C)cc2)S(=O)(=O)NC1=NCC(=O)NC(C)c1ccccc1` (stereo not drawn), the IC50 is 21.1 µM. Consider `CN(C)S(=O)(=O)c1ccc(N2CCCC2)c(C(=O)Nc2ccc(-c3cn4ccsc4n3)cc2)c1`, for which the IC50 was > 50 µM (inactive). To `Cn1cc(-c2noc(Cc3cccc(C(F)(F)F)c3)n2)ccc1=O` belongs > 50 µM (inactive). To `COc1ccc(NC(=O)CNC(=O)c2ccc3nc(-n4cccc4)sc3c2)cc1` belongs 1.86 µM; to `CC(C)=CCC/C(C)=C/Cc1c(O)cc2c(c1O)C(=O)OC2`, 1.24 µM. To `CCc1cc2cc3c(cc2nc1SCC(=O)Nc1cccc(C(C)=O)c1)OCO3` belongs 2.13 µM; to `CCN(CC)C(=O)CN1CCCC(c2ncncc2-c2cc(C)no2)C1` (stereo not drawn), > 50 µM (inactive).

For the compound `C/C1=C/CC(O)/C=C/C(C)C(O)C(C)/C=C(\C)C(=O)c2c(O)c(C)cc3c2C(=O)C(Cl)=C(NC(=O)\C=C/C=C/C=C\C(C)C(O)CC1=O)C3=O` (stereo not drawn), the IC50 is > 50 µM (inactive).

`O=C(Nc1ccccc1)c1cn(-c2cc(N3CCCC3)ncn2)cn1`: the IC50 is > 50 µM (inactive).

In the case of `CCOC(=O)c1cnn(-c2ccc(C(=O)Nc3ccc(C)c(Cl)c3)cc2)c1N`, the concentration for half-maximal inhibition (IC50) is 2.17 µM. Under `O=C(CN1C(=O)C2CCCC2=Nc2ccccc21)Nc1ccc(F)cc1F` (stereo not drawn) stands 36.4 µM; under `Cc1ccc2[nH]c(=O)c(CN(Cc3cccnc3)C(=O)c3cccc(Cl)c3)cc2c1`, > 50 µM (inactive). To `O=C(NCc1ccc(F)cc1)C1CCCN(c2cnc3nccnc3c2)C1` (stereo not drawn) belongs > 50 µM (inactive); to `COc1ccc(C2CC(=O)Nc3n[nH]c(-c4ccccc4)c32)cc1OC` (stereo not drawn), 18.8 µM; to `Cc1ccc(NC2=NC(c3ccco3)n3c(nc(C)cc3=O)N2)c(C)c1` (stereo not drawn), 2.87 µM. Under `O=c1cc(CNc2ccc(Br)cc2)nc2nc(-c3ccccc3)[nH]n12` stands > 50 µM (inactive); under `NS(=O)(=O)c1ccc(NS(=O)(=O)c2ccc(NC(=O)Nc3ccc(Cl)cc3)cc2)cc1`, 29.4 µM; under `Cc1cc(-c2nnc(SCC(=O)Nc3ccc(Br)c(C)c3)n2N)n[nH]1`, 16.1 µM. As for `O=C(O)c1nccnc1C(=O)N1CCc2ccccc2C1`, the IC50 is > 50 µM (inactive). Under `C=C(NC(=O)C(=C)NC(=O)c1csc(-c2ccc3c(n2)-c2csc(n2)-c2csc(n2)C(C(C)C2CO2)NC(=O)C(Cc2ccc(O)cc2)NC(=O)c2csc(n2)C(C(O)c2ccccc2)NC(=O)c2nc(sc2C)C(CC(N)=O)NC(=O)c2csc-3n2)n1)C(=O)O` (stereo not drawn) stands > 50 µM (inactive); under `Cc1nnc(C(=O)Nc2ccc(C(=O)NCc3ccccc3C)cc2)s1`, 26.8 µM; under `CC1CC[C@]2(NC1)O[C@H]1C[C@H]3[C@@H]4CC[C@H]5C[C@@H](O[C@@H]6O[C@H](CO)[C@H](O[C@@H]7O[C@H](CO)[C@@H](O)[C@H](O[C@@H]8OC[C@@H](O)[C@H](O)[C@H]8O)[C@H]7O[C@@H]7O[C@H](CO)[C@@H](O)[C@H](O)[C@H]7O)[C@H](O)[C@H]6O)CC[C@]5(C)[C@H]4CC[C@]3(C)[C@H]1[C@@H]2C` (stereo partly drawn), 39.5 µM. To `COCCCNC(=O)c1ccc(Cn2c(=O)c3ccccc3n(CC(=O)Nc3ccc(OC)cc3)c2=O)cc1` belongs 23.9 µM; to `COc1ccc(CNc2nn3c(-c4cncc(OC)c4)cnc3s2)cc1`, 1.5 µM; to `O=C(NC1(O)C(=O)c2ccccc2C1=O)c1ccc(-c2csnn2)cc1`, 32.1 µM. Under `CCCCN1CC(C(=O)Nc2ccc(C(=O)Nc3ccc(Cl)cc3)cc2)CC1=O` (stereo not drawn) stands 2.21 µM; under `COc1cc(O)c2c(c1)C1=CC(=O)C(O)=C[C@]1(C)OC2=O`, 34.6 µM; under `Cc1ccc(Cn2cc(-c3noc(-c4ccc[nH]4)n3)nn2)cc1`, 23.8 µM. With `COc1ccc(NC(=O)C2c3ccccc3C(=O)N(C3CCCC3)C2c2cccs2)cc1OC` (stereo not drawn), the IC50 is 36.2 µM.

As for `COc1ccccc1NC(=O)Nc1ccc(NC(=O)c2ccccc2O)cc1`, the IC50 is 29 µM. To `O=C1c2ccccc2-n2c1nc1ccccc1c2=O` belongs > 50 µM (inactive).

For the compound `Cc1ccccc1NC(=O)c1nc(-c2cn(Cc3ccc(F)cc3)nn2)no1`, the IC50 is 3.46 µM. To `COc1cnc(-c2ccccn2)nc1Sc1ccccc1Cl` belongs 2.89 µM. Under `Cc1nn(-c2nc3ccccc3[nH]2)c2c1C(c1cccs1)CC(=O)N2` (stereo not drawn) stands > 50 µM (inactive). To `CC(C)Cc1nc2sc3c(NCc4ccccc4)ncnc3c2c2c1COC(C)(C)C2` belongs 4.71 µM; to `COc1ccc(NC(=O)CSc2nnc(Cc3cccc4ccccc34)n2C)cc1`, > 50 µM (inactive); to `COc1ccccc1-c1ccc(CN2[C@@H](c3ccccc3)C[C@@H]3NC(=O)CCC[C@H]32)cc1`, > 50 µM (inactive). Regarding `Cc1nn(C)c2c1[C@@H](c1ccc(F)c(Br)c1)[C@H](NC(=O)c1ccccc1)C(=O)N2`, the IC50 is > 50 µM (inactive). To `CNC(=O)C1CN(C(=O)c2ccc(OC)cc2)CC12CCCC2` (stereo not drawn) belongs > 50 µM (inactive). Under `CN(C)c1ccc(/C=N/NC(=O)c2ccc(Cl)cc2)cc1` stands 10.7 µM.

Take `Cn1cccc1C(=O)N1CCCC2(C1)Nc1cccnc1NC2=NC1CCCC1` (stereo not drawn): the IC50 was > 50 µM (inactive). To `Cc1ccc(Cn2nnc(C(=O)NCc3ccco3)c2-n2cccc2)cc1` belongs > 50 µM (inactive). To `Cc1nn(-c2cccc(F)c2)c2c1c(C)c(CCC(=O)NCc1ccccn1)c(=O)n2C` belongs 3.22 µM; to `CN1c2ccccc2CN(CC(N)=O)CC1Cc1ccccc1` (stereo not drawn), > 50 µM (inactive).

With `COc1ccc(NC(=O)C2CCCN(S(=O)(=O)N3CCCCCC3)C2)cc1` (stereo not drawn), the IC50 was 42.7 µM. To `O=C(c1ccco1)N1CCC2(CC1)CC1(CO2)Nc2ccccc2-n2cccc21` (stereo not drawn) belongs > 50 µM (inactive). Under `CCOc1ccccc1-c1nc(-c2nnn(Cc3ccccc3)c2C)no1` stands > 50 µM (inactive); under `CCc1nc2cc(NC(=O)c3cccc(N4CCCC4=O)c3)ccc2n1C`, > 50 µM (inactive). To `CS(=O)(=O)N1CCCc2cc(C(=O)Nc3ccc(Oc4ccccc4)cc3)ccc21` belongs > 50 µM (inactive); to `c1ccc(Cc2nn3c(-c4cccnc4)nnc3c3ccccc23)cc1`, 0.654 µM.
